≈ marks a conversion by molar mass, not a printed value.
Legend:
[1] = Selectivity index, ratio of IC50 for cytotoxicity against CHO cells by MTT assay to IC50 for antiplasmodial activity against multidrug-sensitive Plasmodium falciparum NF54 infected in human erythrocytes; assay type: toxicity, cell-based; conditions: Chinese hamster, read-out: Ratio IC50
[2] = Aqueous solubility of compound in pH 2 0.01M HCl incubated for 2 hrs under shaking condition by shake-flask method based HPLC-DAD analysis; assay type: physicochemical
[3] = Aqueous solubility of compound in pH 6.5 PBS incubated for 2 hrs under shaking condition by shake-flask method based HPLC-DAD analysis; assay type: physicochemical
[4] = Metabolic stability in human liver microsomes assessed as compound remaining at 0.1 uM measured after 30 mins in presence of cofactor NADPH by LC-MS/MS analysis; assay type: ADME, Microsome; conditions: read-out: Stabilty
[5] = Metabolic stability in rat liver microsomes assessed as compound remaining at 0.1 uM measured after 30 mins in presence of cofactor NADPH by LC-MS/MS analysis; assay type: ADME, Microsome; conditions: read-out: Stabilty
[6] = Metabolic stability in mouse liver microsomes assessed as compound remaining at 0.1 uM measured after 30 mins in presence of cofactor NADPH by LC-MS/MS analysis; assay type: ADME, Microsome; conditions: read-out: Stabilty
[7] = system: Plasmodium berghei; assay: Antiplasmodial activity against Plasmodium berghei ANKA infected in NMRI mouse assessed as reduction in parasitemia at 10 mg/kg, po qd for 4 consecutive days measured at day 7 post infection by flow cytometry analysis; assay type: functional; parameters: scale not given: the % may be the effect or the level left; conditions: time 4 day
[8] = system: Plasmodium berghei; assay: Antiplasmodial activity against Plasmodium berghei ANKA infected in NMRI mouse assessed as reduction in parasitemia at 3 mg/kg, po qd for 4 consecutive days measured at day 7 post infection by flow cytometry analysis; assay type: functional; parameters: scale not given: the % may be the effect or the level left; conditions: time 4 day
[9] = system: Plasmodium berghei; assay: Antiplasmodial activity against Plasmodium berghei ANKA infected in NMRI mouse model assessed as mean survival days at 10 mg/kg, po qd for 4 consecutive day; assay type: functional; conditions: time 4 day
[10] = system: Plasmodium berghei; assay: Antiplasmodial activity against Plasmodium berghei ANKA infected in NMRI mouse model assessed as mean survival days at 3 mg/kg, po qd for 4 consecutive day; assay type: functional; conditions: time 4 day
[11] = system: Plasmodium falciparum; assay: microbe, parasite or virus in culture; conditions: NF54, Erythrocyte
Description: Antiplasmodial activity against multidrug-sensitive Plasmodium falciparum NF54 infected in human erythrocytes assessed as reduction in [3H]hypoxanthine incorporation preincubated for 48 hrs followed by [3H]hypoxanthine addition and measured after 24 hrs by liquid scintillation counting method

[12] = system: Plasmodium falciparum; assay: microbe, parasite or virus in culture; conditions: K1, Erythrocyte
Description: Antiplasmodial activity against multidrug-resistant Plasmodium falciparum K1 infected in erythrocytes assessed as reduction in [3H]hypoxanthine incorporation preincubated for 48 hrs followed by [3H]hypoxanthine addition and measured after 24 hrs by liquid scintillation counting method

[13] = molecular target: Voltage-gated inwardly rectifying potassium channel KCNH2 (Homo sapiens, UniProt Q12809); assay: Inhibition of human ERG by IonWorks patch clamp electrophysiology method
[14] = system: hERG (KCNH2); assay: Selectivity ratio of IC50 for inhibition of human ERG by IonWorks patch clamp electrophysiology method to IC50 for antiplasmodial activity against multidrug-sensitive Plasmodium falciparum NF54 infected in human erythrocytes; assay type: toxicity, cell-based; conditions: read-out: Ratio IC50

Voltage-gated inwardly rectifying potassium channel KCNH2, sequence (Q12809 whole entry): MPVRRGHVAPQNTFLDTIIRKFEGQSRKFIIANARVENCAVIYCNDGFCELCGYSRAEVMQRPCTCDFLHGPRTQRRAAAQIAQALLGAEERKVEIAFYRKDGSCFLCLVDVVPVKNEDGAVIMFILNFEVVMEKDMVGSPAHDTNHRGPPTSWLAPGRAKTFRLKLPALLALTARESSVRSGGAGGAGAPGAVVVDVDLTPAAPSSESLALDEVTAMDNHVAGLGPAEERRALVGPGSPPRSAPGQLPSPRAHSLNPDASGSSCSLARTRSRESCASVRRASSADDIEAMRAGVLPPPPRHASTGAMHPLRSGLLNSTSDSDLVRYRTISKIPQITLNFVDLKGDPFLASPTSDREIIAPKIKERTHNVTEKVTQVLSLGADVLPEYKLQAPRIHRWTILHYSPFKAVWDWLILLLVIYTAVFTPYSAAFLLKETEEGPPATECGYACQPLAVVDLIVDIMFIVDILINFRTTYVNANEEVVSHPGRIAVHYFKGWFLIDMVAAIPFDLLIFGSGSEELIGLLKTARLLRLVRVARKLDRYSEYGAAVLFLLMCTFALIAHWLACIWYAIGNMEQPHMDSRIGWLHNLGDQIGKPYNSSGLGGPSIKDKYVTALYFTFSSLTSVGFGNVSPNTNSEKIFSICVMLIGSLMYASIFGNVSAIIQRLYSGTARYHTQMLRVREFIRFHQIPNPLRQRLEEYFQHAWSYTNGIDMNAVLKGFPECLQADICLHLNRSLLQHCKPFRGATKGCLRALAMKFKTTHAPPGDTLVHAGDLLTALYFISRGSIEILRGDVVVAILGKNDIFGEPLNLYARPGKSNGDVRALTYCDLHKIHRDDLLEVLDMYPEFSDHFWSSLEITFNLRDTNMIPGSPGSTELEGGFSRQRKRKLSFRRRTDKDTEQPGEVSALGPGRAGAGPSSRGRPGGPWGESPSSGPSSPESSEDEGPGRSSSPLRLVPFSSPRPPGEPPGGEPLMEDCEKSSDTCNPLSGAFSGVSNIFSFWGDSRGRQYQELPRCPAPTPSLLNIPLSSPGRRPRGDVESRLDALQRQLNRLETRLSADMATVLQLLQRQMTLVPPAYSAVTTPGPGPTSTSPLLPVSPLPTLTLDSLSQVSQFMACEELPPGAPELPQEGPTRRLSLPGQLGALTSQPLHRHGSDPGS

Row | SMILES | selectivity ratio [1] | solubility thermodynamic at 2 h [2] [µM] | solubility thermodynamic at 2 h [3] [µM] | remaining at 0.5 h, 0.1 µM [4] [%] | remaining at 0.5 h, 0.1 µM [5] [%] | remaining at 0.5 h, 0.1 µM [6] [%] | Activity [7] [%] | Activity [8] [%] | MSD [9] [days] | MSD [10] [days] | IC50 [11] [µM] | IC50 [12] [µM] | IC50 [13] [µM] | selectivity ratio [14]
1 | NC(=O)c1ccc(-c2cnc(N)c(-c3ccc(C(F)(F)F)nc3)n2)cn1 | > 1800 | 7 (≈ 2.52 µg/mL) | 5 (≈ 1.8 µg/mL) | > 90 | > 90 | > 90 | 99.9 | 97.5 | 14 | 7 | 0.0052 | 0.0072 | – | –
2 | Nc1ncc(-c2ccc(C(=O)N3CCC(O)C3)cc2)nc1-c1ccc(C(F)(F)F)nc1 (stereo unspecified) | – | 200 (≈ 85.9 µg/mL) | 155 (≈ 66.6 µg/mL) | – | – | – | – | 61 | – | 7 | 0.018 | 0.012 | – | –
3 | CN1CCCN(C(=O)c2ccc(-c3cnc(N)c(-c4ccc(C(F)(F)F)cc4)n3)cc2)CC1 | – | 200 (≈ 91.1 µg/mL) | 152 (≈ 69.2 µg/mL) | – | – | – | – | 90 | – | 7 | 0.0068 | 0.0057 | 5 | –
4 | Nc1ncc(-c2ccc(C(=O)N3CCCNCC3)cc2)nc1-c1ccc(C(F)(F)F)cc1 | – | 190 (≈ 83.9 µg/mL) | 128 (≈ 56.5 µg/mL) | – | – | – | – | 88 | – | 11 | 0.0077 | 0.0063 | – | –
5 | NC(=O)c1ccc(-c2cnc(N)c(-c3ccc(C(F)(F)F)nc3)n2)nc1 | – | 123 (≈ 44.3 µg/mL) | < 5 | – | – | – | – | – | – | – | 1.58 | – | – | –
6 | Nc1ncc(-c2ccc(C(=O)N3CCC(N)CC3)cc2)nc1-c1ccc(C(F)(F)F)nc1 | – | 200 (≈ 88.5 µg/mL) | 163 (≈ 72.1 µg/mL) | – | – | – | – | 41 | – | 6 | 0.02 | 0.018 | – | –
7 | CS(=O)(=O)c1ccc(-c2cnc(N)c(-c3ccc(N)nc3)n2)cc1 | – | 206 (≈ 70.3 µg/mL) | 149 (≈ 50.9 µg/mL) | > 90 | > 90 | > 90 | – | – | – | – | 0.038 | 0.027 | – | –
8 | Nc1ccc(-c2cnc(N)c(-c3ccc(N)nc3)n2)cn1 | – | – | – | > 90 | > 90 | > 90 | – | – | – | – | 0.203 | 0.143 | – | –
9 | CNC(=O)c1ccc(-c2nc(-c3ccc(C(N)=O)cc3)cnc2N)cc1 | – | 186 (≈ 64.6 µg/mL) | 178 (≈ 61.8 µg/mL) | – | – | – | – | – | – | – | 0.052 | 0.052 | – | –
10 | Nc1ncc(-c2ccc(C(=O)N3CCC(N)C3)cc2)nc1-c1ccc(C(F)(F)F)cc1 (stereo unspecified) | – | 165 (≈ 70.5 µg/mL) | 102 (≈ 43.6 µg/mL) | – | – | – | – | 71 | – | 7 | 0.019 | 0.012 | 10 | 526
11 | Nc1ncc(-c2ccc(C(=O)N3CCC(N)C3)cc2)nc1-c1ccc(C(F)(F)F)nc1 (stereo unspecified) | – | 200 (≈ 85.7 µg/mL) | 116 (≈ 49.7 µg/mL) | – | – | – | – | 47 | – | 7 | 0.04 | 0.026 | – | –
12 | N#Cc1ccc(-c2cnc(N)c(-c3ccc(N)nc3)n2)cc1 | – | 208 (≈ 60 µg/mL) | < 5 | > 90 | > 90 | > 90 | – | – | – | – | 0.222 | 0.149 | – | –
13 | COC(=O)c1ccc(-c2cnc(N)c(-c3ccc(C(F)(F)F)cc3)n2)cc1 | – | < 5 | < 5 | – | – | – | – | – | – | – | 2.63 | – | – | –
14 | Nc1ncc(-c2ccc(C(=O)N3CC[C@H](O)C3)cc2)nc1-c1ccc(C(F)(F)F)cc1 | – | 93 (≈ 39.8 µg/mL) | 68 (≈ 29.1 µg/mL) | > 90 | > 90 | > 90 | 100 | – | 16 | 8 | 0.006 | – | – | –
15 | N#Cc1ccc(-c2cnc(N)c(-c3ccc(C(N)=O)cc3)n2)cc1 | – | – | – | – | – | – | – | – | – | – | 0.057 | 0.044 | – | –

From ChEMBL document CHEMBL4715789, “Identification of a Potential Antimalarial Drug Candidate from a Series of 2-Aminopyrazines by Optimization of Aqueous Solubility and Potency across the Parasite Life Cycle” (J Med Chem, 2016)
